Assays:
[1] = tested on: Actinobacillus pleuropneumoniae; assay: Pigs at a high risk for developing an Actinobacillus pleuropneumoniae infection, seeder-pig exposure (Example 8); type: in vivo
Description: One hundred and thirty clinically healthy pigs having an average body weight of approximately 10 kg were purchased, identified with an ear tag and acclimated to the study site 2 days before the study began. On day −1, all animals were weighed and 100 animals were selected for consistency of body weight (about 10 kg) and lack of signs of clinical abnormalities. Selected animals (20 per treatment) were randomly assigned to treatment and sorted into individual pens. A group of 25 additional animals were randomly assigned as seeder pigs (5 per treatment). […] Temperatures and illness scores were recorded daily. […] An estimate of the percentage of affected lung tissue was determined and recorded. […]
Assessment of efficacy was determined based upon comparison of mean daily illness scores, temperatures and lung-lesion scores. Differences between treatments for mean daily rectal temperatures and illness scores were evaluated by a repeated-measures analysis of variance. […]

Pasteurella multocida = assay: Therapeutic efficacy in swine infected with Pasteurella multocida (Example 5); type: in vivo; conditions: pigs, P. multocida challenge, 1.25 mg/kg intramuscular
Description: By Apotency-actual@ number, as used herein, is meant the actual mg per mL of the substantially pure mixture or equilibrium mixture of N-(n-propyl) isomer I and N-(n-propyl) isomer II present in the pharmaceutical composition.
Fifty clinically normal and healthy pigs having a consistent body weight of approximately 10 kg were selected from a pool of 60 animals. Selected animals (10 per treatment) were randomly assigned to treatment and sorted into pens accordingly. On day 0, each animal was inoculated endotracheally with 25 mL of Pasteurella multocida challenge culture. […] Temperatures and illness scores were recorded 6 hours post-challenge and once daily beginning at 24 hours post-challenge. […] An estimate of the percentage of affected lung tissue was determined and recorded. […]
Assessment of efficacy was determined based upon comparison of mean daily illness scores, temperatures and lung-lesion scores. Differences between treatments for mean daily rectal temperatures and illness scores were evaluated by a repeated measures analysis of variance. Differences between mean lung-lesion scores for each treatment were evaluated using a factorial analysis of variance procedure. […]

[2] = tested on: Eimeria bovis, Eimeria aubumenis and Eimeria zuernii coccidia oocysts; assay: Calves challenged with a coccidia challenge culture (Example 9); type: in vivo
Description: Sixty naive calves weighing approximately 110-125 kg were purchased from local dairies, weighed, identified by ear tag, and observed for general health assessments. Animals considered physically abnormal, undersized or moribund on arrival were excluded from the study. Calves were housed in five holding pens (12 animals/pen). Calves were held for 7 days prior to challenge in order to acclimate them to the facility. Prior to challenge, calves were excluded from the study at the discretion of the investigator. On days −6, −4 and −2 pre-challenge, fecal samples were obtained for semi-quantitative oocyst counts. On day −4 pre-challenge, oocysts, if present, were speciated.
On day 8 post-arrival (study day 0), calves were inoculated orally with the Eimeria culture. Beginning on day 1, temperatures were determined and recorded at approximately the same time each day for the duration of the study. Attitude, hydration and fecal consistency scores were evaluated daily. Post-challenge, fecal samples were collected on days 2, 4, 6, 8 and 10. Oocysts were speciated on day 10 post-challenge. On day 10 post-challenge, fifty animals were randomly allotted to one of five treatment groups using a randomized block allotment. Treatments were equally represented in each pen. Animals were injected subcutaneously with a single dose of one of the following solutions: (1) about 4 mL of sterile 0.9% sodium chloride (saline); (2) about 4 mL of 300 mg/mL MICOTIL at a dose of 10 mg/kg of body weight; (3) about 6 mL of the pharmaceutical composition at a dose of 5 mg/kg of body weight; (4) about 3 mL of the pharmaceutical composition at a dose of 2.5 mg/kg of body weight; or animals were drenched dosed orally with (5) about 2 oz. of amprolium in a 9.6% oral solution at a dose of 10 mg/kg of body weight. Only amprolium was re-administered on each of the following four days. All other treatments were given in a single dose injection. Fecal samples were examined semi-quantitatively post-treatment for shedding of coccidia oocysts on days 12, 14, 16 and 18. Beginning on day 19 and continuing through day 28, daily fecal samples were evaluated for semi-quantitative counts. Speciation of shed oocysts was performed on days 19-21, 23, 26 and 28. Calves that died during the course of the study or that were euthanized due to a moribund condition associated with clinical coccidiosis were counted as mortalities. Mortalities were necropsied and gross findings were recorded. At the termination of the study on day 28, all remaining animals were weighed, euthanized and examined post-mortem.
Assessment of drug efficacy was determined based upon analysis of mean daily clinical scores, temperature and oocyst shedding. Differences in clinical scores and temperature between different treatments were evaluated by repeated measures ANOVA. Differences in weight gain were determined by factorial ANOVA. Comparisons of mortality rates and oocyst shedding between treatments was performed using Chi-Square analysis and Fisher's Exact test.

[3] = Equilibration of N-(n-propyl) isomer I and isomer II in heated aqueous acid solution, HPLC (Example 2, Table 1); type: physicochemical; conditions: N-(n-propyl) isomer I prior to equilibration, for comparison
Description: The equilibrium ratio of N-(n-propyl) isomer I and N-(n-propyl) isomer II (about 90%±4% to about 10%±4%, respectively) was consistent for all experiments. […] Without being bound by any theory, lower equilibration temperatures or lower pH values generally result in substantially longer equilibration times. Equilibration time can also depend on, inter alia, the concentration of starting material, and the type and concentration of the acid used. N-(n-propyl) isomer I at a concentration of up to about 300 mg per mL of composition was heated to a temperature of about 40° C. to about 80° C. in the presence of one or more acids at a concentration of about 0.2 mmol to about 1.0 mmol per mL of mixture and with a sufficient quantity of hydrochloric acid to achieve a pH of about 6.5 to about 7.5 for up to about 20 hours to produce an equilibrium mixture of isomers that is about 95%-98% pure. Equilibration kinetic parameters and impurity levels for equilibration of N-(n-propyl) isomer I and N-(n-propyl) isomer II were determined as a function of pH, equilibration temperature, type of acid, and N-(n-propyl) isomer I concentration and are listed in Table 1. […]
Equilibrium mixtures of isomers were prepared and assayed as follows. […] Where 0.1 M citric or tartaric acid was used, hydrochloric acid was also added in a quantity sufficient to obtain the pH listed in column 2. […]

[4] = amprolium, MICOTIL, or pharmaceutical composition at either dose level

Question: Which “Mean Lung-lesion Score” value ([1]; pigs exposed to A. pleuropneumoniae seeder pigs, 1.25 mg/kg intramuscular, re-administered on each of the following two days) does the source give for `CN1C[C@@H]2C[C@H]1CN2c1cc2c(cc1F)c(=O)c(C(=O)O)cn2C1CC1` [Danofloxacin, danofloxacin] here?
Answer: Its value is 4.8%.

Question: And the “mean daily illness scores in the saline-treated pigs compared to treated animals” value ([1]; pigs, danofloxacin 1.25 mg/kg x3, pharmaceutical composition 2.5, 5, 10 mg/kg)?
Answer: Its value is “Statistically significant (p<0.05) elevations”.

Question: And the “Mean Lung Lesion Score (%)” value (Pasteurella multocida; re-administered on each of the following two days)?
Answer: Its value is 1.9%.

Question: What about the “mean daily illness scores” value (Pasteurella multocida; three doses, saline about 3) of the same molecule?
Answer: The value was “about 2”.

Question: Which “21-day Average Daily Weight Gain” value ([2]; 10 mg/kg oral drench from day 10 post-challenge, re-administered on each of the following four days) does the source give for `CCCc1ncc(C[n+]2ccccc2C)c(N)n1` [Amprolium, amprolium] here?
Answer: Its value is 0.60 kg.

Question: And the “mean daily hydration scores compared to the saline treated calves” value ([2]; amprolium 10 mg/kg oral)?
Answer: Its value is “statistically significant reductions (p<0.05)”.

Question: What about the “mean daily attitude scores compared to the saline controls” value [2, 4] of the same molecule?
Answer: The value was “significant reductions (p<0.05)”.

Question: And the “mean daily fecal consistency scores compared to the saline treated calves” value [2, 4]?
Answer: Its value is “statistically significant reductions (p<0.05)”.

Question: And the “oocyst shedding compared to the saline controls” value ([2]; days 19-28 post-challenge)?
Answer: Its value is “decreased”.

Question: What does the source list for `CCCNC[C@]1(O)[C@H](C)O[C@@H](O[C@H]2[C@H](C)[C@@H](O[C@@H]3O[C@H](C)C[C@H](N(C)C)[C@H]3O)[C@](C)(O)C[C@@H](C)CN[C@H](C)[C@@H](O)[C@](C)(O)[C@@H](CC)OC(=O)[C@@H]2C)C[C@@]1(C)OC` [DS]?
Answer: % Equilibrium mixture of isomers [3]: 98.39%; % Impurities [3]: 1.61%

— patent US20040235759A1, “Use of azalide antibiotic compositions for treating or preventing a bacterial or protozoal infection in mammals” (Pfizer Inc, priority 2000, published 2004)
